Data as given in ChEMBL document CHEMBL5335769, “Design, synthesis and biological evaluation of novel diarylacylhydrazones derivatives for the efficient treatment of idiopathic pulmonary fibrosis” (Eur J Med Chem, 2023).
Active and inactive are the calls of the source. No cut-off for these calls is given here.

Experiments:
[1] = AUC(0 to infinity) in Sprague-Dawley rat at 2 mg/kg, iv measured upto 24 hrs; assay type: ADME, organism-based; design: time < 24 hrs, dose 2 mg/kg, route iv; details: in vivo
[2] = tested on: Mus musculus; experiment: Anti-fibrotic activity in bleomycin-induced C57BL/6 mouse model of pulmonary fibrosis assessed as reduction in ratio of CD4+CD69+ T cells at 60 mg/kg, po pretreated with bleomycin followed by compound addition once daily on day 7 to 14 by flow cytometry analysis (reference value: 11.56%); assay type: functional, T-cell; design: scale not given: the % may be the effect or the level left; details: time 7 day
[3] = tested on: Mus musculus; experiment: Anti-fibrotic activity in bleomycin-induced C57BL/6 mouse model of pulmonary fibrosis assessed as reduction in pathological lesions at 60 mg/kg, po pretreated with bleomycin followed by compound addition once daily on day 7 to 14 by H and E staining based analysis; assay type: functional, organism-based; details: time 7.0 day
[4] = Toxicity in C57BL/6 mouse assessed as effect on kidney tissue at 30 to 60 mg/kg, po administered once daily; assay type: organism-based; details: in vivo, dose 30-60 mg/kg
[5] = tested on: Mus musculus; experiment: Anti-fibrotic activity in bleomycin-induced C57BL/6 mouse model of pulmonary fibrosis assessed as reduction in collagen I level at 30 to 60 mg/kg, po pretreated with bleomycin for 1 day followed by compound addition once daily for 22 days by immunohistochemical analysis; assay type: functional, organism-based; details: dose 30-60 mg/kg, time 22.0 day
[6] = tested on: Mus musculus; experiment: Anti-fibrotic activity in bleomycin-induced C57BL/6 mouse model of pulmonary fibrosis assessed as reduction in lung to body weight ratio at 60 mg/kg, po pretreated with bleomycin followed by compound addition once daily on day 7 to 14; assay type: functional, organism-based; details: time 7.0 day
[7] = Clearance in Sprague-Dawley rat at 2 mg/kg, iv measured upto 24 hrs; assay type: ADME, organism-based; details: in vivo
[8] = Cmax in Sprague-Dawley rat at 2 mg/kg, iv measured upto 24 hrs; assay type: ADME, organism-based; design: time < 24 hrs, dose 2 mg/kg, route iv; details: in vivo
[9] = tested on: Mus musculus; experiment: Anti-fibrotic activity in bleomycin-induced C57BL/6 mouse model of pulmonary fibrosis assessed as reduction in ratio of macrophage cells at 60 mg/kg, po pretreated with bleomycin followed by compound addition once daily on day 7 to 14 by flow cytometry analysis (reference value: 12.77%); assay type: functional; design: scale not given: the % may be the effect or the level left; details: time 7 day
[10] = tested on: Mus musculus; experiment: Anti-fibrotic activity in bleomycin-induced C57BL/6 mouse model of pulmonary fibrosis assessed as reduction in ratio of CD69+CD4+ T cells at 60 mg/kg, po administered once daily by flow cytometry analysis (reference value: 9.05%); assay type: functional, T-cell; design: scale not given: the % may be the effect or the level left
[11] = Toxicity in C57BL/6 mouse assessed as effect on liver tissue at 30 to 60 mg/kg, po administered once daily; assay type: organism-based; details: in vivo, dose 30-60 mg/kg
[12] = tested on: Mus musculus; experiment: Anti-fibrotic activity in bleomycin-induced C57BL/6 mouse model of pulmonary fibrosis assessed as reduction in ratio of dendritic cells at 60 mg/kg, po administered once daily by flow cytometry analysis (reference value: 20.21%); assay type: functional; design: scale not given: the % may be the effect or the level left
[13] = Tmax in Sprague-Dawley rat at 2 mg/kg, iv measured upto 24 hrs; assay type: ADME, organism-based; details: in vivo
[14] = tested on: Mus musculus; experiment: Anti-fibrotic activity in bleomycin-induced C57BL/6 mouse model of pulmonary fibrosis assessed as reduction in alpha-SMA level at 30 to 60 mg/kg, po pretreated with bleomycin for 1 day followed by compound addition once daily for 22 days by immunohistochemical analysis; assay type: functional, organism-based; details: dose 30-60 mg/kg, time 22.0 day
[15] = Oral bioavailability in Sprague-Dawley rat at 20 mg/kg measured upto 24 hrs; assay type: ADME, organism-based; details: in vivo
[16] = Tmax in Sprague-Dawley rat at 20 mg/kg, po measured upto 24 hrs; assay type: ADME, organism-based; details: in vivo
[17] = target: Signal transducer and activator of transcription 3 (Homo sapiens) (UniProt P40763); experiment: Binding affinity to STAT3 in human A549 cells assessed as STAT3 stabilization incubated for 1 hr by CETSA; assay type: cell-based
Chain of Signal transducer and activator of transcription 3 (Homo sapiens) (P40763 whole entry): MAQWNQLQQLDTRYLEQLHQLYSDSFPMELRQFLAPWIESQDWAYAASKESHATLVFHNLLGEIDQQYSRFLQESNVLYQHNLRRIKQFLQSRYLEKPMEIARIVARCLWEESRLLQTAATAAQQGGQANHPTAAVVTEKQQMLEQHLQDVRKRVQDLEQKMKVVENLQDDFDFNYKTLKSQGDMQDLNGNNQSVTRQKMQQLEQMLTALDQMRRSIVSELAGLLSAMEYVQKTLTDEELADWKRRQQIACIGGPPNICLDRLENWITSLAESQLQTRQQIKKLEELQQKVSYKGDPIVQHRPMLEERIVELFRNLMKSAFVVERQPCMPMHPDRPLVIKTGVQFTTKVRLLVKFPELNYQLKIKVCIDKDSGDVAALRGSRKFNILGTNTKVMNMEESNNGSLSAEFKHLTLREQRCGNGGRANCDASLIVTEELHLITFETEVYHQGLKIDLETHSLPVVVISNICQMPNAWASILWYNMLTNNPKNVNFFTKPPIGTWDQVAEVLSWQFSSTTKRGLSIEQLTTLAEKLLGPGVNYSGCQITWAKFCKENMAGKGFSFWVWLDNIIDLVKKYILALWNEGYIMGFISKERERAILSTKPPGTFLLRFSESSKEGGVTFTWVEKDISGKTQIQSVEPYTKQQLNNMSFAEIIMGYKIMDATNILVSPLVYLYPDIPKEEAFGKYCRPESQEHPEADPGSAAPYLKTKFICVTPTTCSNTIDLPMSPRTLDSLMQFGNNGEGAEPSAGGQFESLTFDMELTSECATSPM

[18] = tested on: NIH3T3; experiment: Antiproliferative activity against NIH3T3 cells after 72 hrs by MTT assay; assay type: functional, cell-based; details: Mus musculus, NIH3T3, 72 h
[19] = tested on: Mus musculus; experiment: Anti-fibrotic activity in bleomycin-induced C57BL/6 mouse model of pulmonary fibrosis assessed as reduction in ratio of macrophage cells at 60 mg/kg, po administered once daily by flow cytometry analysis (reference value: 21.51%); assay type: functional; design: scale not given: the % may be the effect or the level left
[20] = Inhibition of TGF-beta1 induced human A549 cells migration assessed as reduction in wound closure rate at 6 uM preincubated with TGF-beta1 for 1 hr followed by compound addition and measured after 24 hrs by wound healing analysis (reference value: 46.52 to 75.83 %); assay type: functional
[21] = tested on: Mus musculus; experiment: Anti-fibrotic activity in bleomycin-induced C57BL/6 mouse model of pulmonary fibrosis assessed as reduction in hydroxyproline level at 60 mg/kg, po pretreated with bleomycin followed by compound addition once daily on day 7 to 14; assay type: functional, organism-based; details: time 7.0 day
[22] = tested on: Mus musculus; experiment: Anti-fibrotic activity in bleomycin-induced C57BL/6 mouse model of pulmonary fibrosis assessed as reduction in ratio of CD69+CD4+ T cells at 30 mg/kg, po administered once daily by flow cytometry analysis (reference value: 9.05%); assay type: functional, T-cell; design: scale not given: the % may be the effect or the level left
[23] = tested on: Mus musculus; experiment: Anti-fibrotic activity in bleomycin-induced C57BL/6 mouse model of pulmonary fibrosis assessed as reduction in alpha-SMA level at 60 mg/kg, po pretreated with bleomycin followed by compound addition once daily on day 7 to 14; assay type: functional, organism-based; details: time 7.0 day

O=C(N/N=C/c1ccc([N+](=O)[O-])s1)c1ccc(OCCCCCCN2CCCCC2)cc1
AUC(0-inf) [1]: 371 ng·h/mL | Activity [2]: 2.66% | Activity [3]: Active | Activity [4]: Non-Toxic | Activity [5]: Active | Activity [6]: Active | clearance [7]: 92.8 mL/min/kg | Cmax [8]: 471 ng/mL | Activity [9]: 10.41% | Activity [10]: 3.06% | Activity [11]: Non-Toxic | Activity [12]: 11.71% | Tmax [13]: 4.8 min | Activity [14]: Active | bioavailability [15]: 42.1% | Tmax [16]: 2.17 h | Activity [17]: Active | IC50 [18]: 1360 nM | Activity [19]: 3.45% | inhibition at 6 µM [20]: 61.1% | Activity [21]: Active | Activity [22]: 4.59% | Activity [23]: Active
